Experimental data reported in patent US20090017452A1, “METHODS AND COMPOSITIONS RELATING TO THE PHARMACOGENETICS OF DIFFERENT GENE VARIANTS” (UNIVERSITY OF CHICAGO, priority 2004, published 2009).
Changes are numbered by the printed parent chain. Read-outs that look alike come from different tables or passages of the source.

Columns and labels:
OATP1B1 = target: T1, OATP1B1 (Homo sapiens, UniProt Q9Y6L6); conditions: cited from earlier work; for transport activity by OATP1B1: OATP1B1*1a and three common variants
T1 construct: expressed in transfected cells; host or cells: HEK293 cells (stably transfected); Xenopus oocytes
T1 sequence (Q9Y6L6 1-691): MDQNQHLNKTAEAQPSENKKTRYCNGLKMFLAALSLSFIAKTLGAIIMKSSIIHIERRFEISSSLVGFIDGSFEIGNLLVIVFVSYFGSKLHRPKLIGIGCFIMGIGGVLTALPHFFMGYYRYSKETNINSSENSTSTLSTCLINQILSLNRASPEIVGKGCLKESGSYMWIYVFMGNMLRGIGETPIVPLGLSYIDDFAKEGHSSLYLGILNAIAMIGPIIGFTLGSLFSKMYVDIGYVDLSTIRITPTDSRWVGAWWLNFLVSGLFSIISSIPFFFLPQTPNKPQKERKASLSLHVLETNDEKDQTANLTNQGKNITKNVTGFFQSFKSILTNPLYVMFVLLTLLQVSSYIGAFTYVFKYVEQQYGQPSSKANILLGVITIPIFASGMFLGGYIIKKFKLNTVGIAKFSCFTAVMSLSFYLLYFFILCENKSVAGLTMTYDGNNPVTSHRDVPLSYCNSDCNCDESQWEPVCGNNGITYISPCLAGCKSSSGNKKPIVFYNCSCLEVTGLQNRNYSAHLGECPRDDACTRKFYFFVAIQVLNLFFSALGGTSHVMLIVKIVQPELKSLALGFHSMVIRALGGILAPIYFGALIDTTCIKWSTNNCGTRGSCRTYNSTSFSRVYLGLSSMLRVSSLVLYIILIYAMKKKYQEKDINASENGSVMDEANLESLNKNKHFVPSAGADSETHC

[1] = Irinotecan and metabolite AUC by ABCC2 3972C>T genotype in cancer patients
From the text: Sixty-four adults (48 Caucasians, 10 African-Americans, 4 Hispanics, and 2 others) with refractory solid tumors took part in the pharmacogenetic study.

[2] = target: T2, SLCO1B1*15 (N130D and V174A) (Homo sapiens, UniProt Q9Y6L6, N130D/V174A); conditions: Xenopus oocytes, among the variants examined; cited from earlier work
T2 sequence (Q9Y6L6 1-691 N130D/V174A): T1 sequence (Q9Y6L6 1-691) with N130D, V174A

[3] = CPT-11 pharmacokinetics by SLCO1B1*5 genotype in patients; conditions: human, in vivo, intravenous
From the text: Six SNPs in ABCC2 were genotyped [−1549G>A, −1019A>G, −24C>T, 1249G>A, intron 27 −34C>T, 3972C>T] and haplotypes were estimated. Two SNPs in SLCO1B1 [*1b (388A>G) and *5 (521T>C)] were also genotyped.

[4] = cited from earlier work
[5] = after intra peritoneal administration of irinotecan; cited from earlier work
[6] = cited from earlier work; remark: listed apart in the source

SMILES: CCc1c2c(nc3ccc(O[C@@H]4O[C@H](C(=O)O)[C@@H](O)[C@H](O)[C@H]4O)cc13)-c1cc3c(c(=O)n1C2)COC(=O)[C@]3(O)CC [SN-38G, 10O-glucuronyl-SN-38]
- transport activity by OATP1B1 (OATP1B1): not transported

SMILES: CCc1c2c(nc3ccc(OC(=O)N4CCC(NCCCCC(=O)O)CC4)cc13)-c1cc3c(c(=O)n1C2)COC(=O)[C@]3(O)CC [APC]
- AUC ratio APC/irinotecan in TT patients compared to CT and CC patients ([1]; 350 mg/m^2 IV irinotecan): Higher values of AUC ratios

SMILES: C[C@]12CC[C@@H]3c4ccc(OS(=O)(=O)O)cc4CC[C@H]3[C@@H]1CCC2=O [estrone-3-sulfate]
- transport activity of variant SLCO1B1*15 [2]: decreased transport activities

SMILES: CCc1c2c(nc3ccc(OC(=O)N4CCC(N5CCCCC5)CC4)cc13)-c1cc3c(c(=O)n1C2)COC(=O)[C@]3(O)CC [irinotecan]
- AUC ([3]; 350 mg/m^2, patients with SLCO1B1*5 CT+CC genotype): 29500 ± 8800 ng·h/mL
- AUC ([3]; 350 mg/m^2, patients with SLCO1B1*5 TT genotype): 22300 ± 5100 ng·h/mL
- transport activity by OATP1B1 (OATP1B1): not transported
- patients experiencing grade 3-4 neutropenia ([4]; both weekly and three-weekly regimens): 30-40%
- patients with grade 3-4 diarrhea ([4]; early single agent trials, dose limiting): about one third
- frequency of grade 3-4 diarrhea ([4]; three-weekly regimen): 19%
- mortality rate ([4]; three-weekly single agent regimen): 1.6%
- frequency of grade 3-4 diarrhea ([4]; weekly schedule): 36%
- mortality rate ([4]; weekly single agent regimen): 5.3%
- AUC in ABCC2 3972 TT patients compared to CT and CC patients ([1]; 350 mg/m^2 IV dose of irinotecan, 64 patients): higher AUC values

SMILES: CCc1c2c(nc3ccc(O)cc13)-c1cc3c(c(=O)n1C2)COC(=O)[C@]3(O)CC [SN-38, 7-ethyl-10-hydroxycamptothecin]
- transport activity by OATP1B1 (OATP1B1): transport activity for SN-38 was observed
- effect on SLCO1B1-mediated uptake of [(3)H]estrone-3-sulfate (OATP1B1): significant inhibitory effect
- tissue accumulation of SN-38 [5]: accumulate in the intestine
- AUC versus ABCC2 3972C>T genotype (TT compared to CT and CC) ([1]; 350 mg/m^2 IV irinotecan, patients with 6/6 and 6/7 UGT1A1 genotype (n=54)): No significant correlation
- transport activity of variant SLCO1B1*15 [2]: decreased transport activities

SMILES: CC[C@H](C)C(=O)O[C@H]1C[C@H](O)C=C2C=C[C@H](C)[C@H](CC[C@@H](O)C[C@@H](O)CC(=O)O)[C@H]21 [pravastatin]
- transport activity of variant SLCO1B1*15 [2]: decreased transport activities
- mean pravastatin AUC0-12 higher compared to non-carriers ([6]; heterozygous carriers of *15B (388A>G and 521T>C)): 93%
- mean pravastatin AUC0-12 higher compared to non-carriers ([6]; heterozygous carriers of *17 (-11187G>A, 388A>G and 521T>C)): 130%
- mean pravastatin AUC0-12 higher compared to reference genotype ([6]; subjects with 521TC genotype): 106%
- mean pravastatin AUC0-12 higher compared to reference genotype ([6]; subjects with -11187GA genotype): 98%
